Experimental data as given in patent US9394268B2, “(E)-1-(5-methoxy-2,2-dimethyl-2H-chromen-8-yl)-3-(4-methoxyphenyl)prop-2-en-1-one and analogs thereof, as well as preparation method and use thereof” (Sichuan University, priority 2012, dated 2016).

Experiments:
Type in all cases: cell-based
[1] = tested on: K562; test: Cell proliferative assay (MTT), K562; conditions: Homo sapiens, 72 h incubation, read-out: IC50s K562
Protocol: (§1) The synthesized compounds were evaluated for their cytotoxin activity against suspended tumor cells. These cells were seeded on 96-well plates and incubated for 24 h. Selected compounds were added at various doses and incubated for 72 h, MTT was then added, and the absorbance was measured at a wavelength of 590 nm. IC50 values are expressed as the mean±SEM from the dose-response curves of at least three independent experiments.

[2] = tested on: A375; test: Cell proliferative assay (MTT), A375; conditions: Homo sapiens, A-375, 72 h incubation, read-out: IC50s A375
Protocol: as §1

[3] = tested on: LO2; test: Cell proliferative assay (MTT), LO2; conditions: Homo sapiens, L02, 72 h incubation, read-out: IC50s LO2
Protocol: as §1

[4] = tested on: A549; test: Cell proliferative assay (MTT), A549; conditions: Homo sapiens, 72 h incubation, read-out: IC50s A549
Protocol: as §1

[5] = tested on: HepG2; test: Cell proliferative assay (MTT), HepG2; conditions: Homo sapiens, 72 h incubation, read-out: IC50s HepG2
Protocol: as §1

[6] = tested on: SMMC-7221; test: Cell proliferative assay (MTT), SMMC-7221; conditions: 72 h incubation, read-out: IC50s SMMC-7221
Protocol: as §1

IC50 [1] | IC50 [2] | IC50 [4] | IC50 [5] | IC50 [6] | SMILES | IC50 [3]
7.85 µM | 2.4 µM | 8.6 µM | 3.6 µM | 9.2 µM | COc1ccc(/C=C/C(=O)c2ccc(OC)c3c2OC(C)(C)C=C3)cc1OS(=O)(=O)c1ccc(C)cc1 [SKLBC-69, (E)-2-methoxy-5-(3-(5-methoxy-2,2-dimethyl-2H-chromen-8-yl)-3-oxoprop-1-en-1-yl)phenyl 4-methylbenzenesulfonate] | > 10 µM
> 10 µM | > 10 µM | > 10 µM | > 10 µM | > 10 µM | COc1ccc(/C=C/C(=O)c2ccc(OC)c3c2OC(C)(C)C=C3)cc1OS(=O)(=O)Cc1ccccc1 [SKLBC-70, (E)-2-methoxy-5-(3-(5-methoxy-2,2-dimethyl-2H-chromen-8-yl)-3-oxoprop-1-en-1-yl)phenyl phenylmethanesulfonate] | > 10 µM
0.62 µM | 2.2 µM | 1.2 µM | 0.58 µM | 0.87 µM | COc1ccc(/C=C/C(=O)c2ccc(OC)c3c2OC(C)(C)C=C3)cc1OCC=C(C)C [SKLBC-71, (E)-1-(5-methoxy-2,2-dimethyl-2H-chromen-8-yl)-3-(4-methoxy-3-((3-methylbut-2-en-1-yl)oxy)phenyl)prop-2-en-1-one] | > 10 µM
> 10 µM | > 10 µM | > 10 µM | > 10 µM | > 10 µM | C=CCOc1cc(/C=C/C(=O)c2ccc(OC)c3c2OC(C)(C)C=C3)ccc1OC [SKLBC-72, (E)-3-(3-(allyloxy)-4-methoxyphenyl)-1-(5-methoxy-2,2-dimethyl-2H-chromen-8-yl)prop-2-en-1-one] | > 20 µM
> 10 µM | > 10 µM | > 10 µM | > 10 µM | > 10 µM | C#CCOc1cc(/C=C/C(=O)c2ccc(OC)c3c2OC(C)(C)C=C3)ccc1OC [SKLBC-73, (E)-1-(5-methoxy-2,2-dimethyl-2H-chromen-8-yl)-3-(4-methoxy-3-(prop-2-yn-1-yloxy)phenyl)prop-2-en-1-one] | > 20 µM
9.28 µM |  | 10 µM | 4.85 µM | > 10 µM | COc1ccc(/C=C/C(=O)c2ccc(OC)c3c2OC(C)(C)C=C3)cc1NCc1ccccc1 [SKLBC-90, (E)-3-(3-(benzylamino)-4-methoxyphenyl)-1-(5-methoxy-2,2-dimethyl-2H-chromen-8-yl)prop-2-en-1-one] | > 10 µM
2.4 µM |  | > 10 µM | 4.55 µM | 5.1 µM | CCC(=O)Nc1cc(/C=C/C(=O)c2ccc(OC)c3c2OC(C)(C)C=C3)ccc1OC [SKLBC-93, (E)-N-(2-methoxy-5-(3-(5-methoxy-2,2-dimethyl-2H-chromen-8-yl)-3-oxoprop-1-en-1-yl)phenyl)propionamide] | 7.8 µM

Continued, molecule first:

SMILES | IC50 [1] | IC50 [2] | IC50 [4] | IC50 [5] | IC50 [6] | IC50 [3]
CCN(CC)c1ccc(/C=C/C(=O)c2ccc(OC(C)=O)c3c2OC(C)(C)C=C3)cc1 [SKLBC-48, (E)-8-(3-(4-(diethylamino)phenyl)acryloyl)-2,2-dimethyl-2H-chromen-5-yl acetate] | 8.75 µM | 9.6 µM | 17.1 µM | > 10 µM | > 10 µM | > 20 µM
CCCCC(=O)Oc1ccc(C(=O)/C=C/c2ccc(N(CC)CC)cc2)c2c1C=CC(C)(C)O2 [SKLBC-51, (E)-8-(3-(4-(diethylamino)phenyl)acryloyl)-2,2-dimethyl-2H-chromen-5-ylpentanoate] | > 10 µM | > 10 µM | > 20 µM | > 10 µM | > 10 µM | 20 µM
CCN(CC)c1ccc(/C=C/C(=O)c2ccc(OS(=O)(=O)C3CC3)c3c2OC(C)(C)C=C3)cc1 [SKLBC-53, (E)-8-(3-(4-(diethylamino)phenyl)acryloyl)-2,2-dimethyl-2H-chromen-5-yl cyclopropanesulfonate] | 4.25 µM | 3.75 µM | > 10 µM | 8.2 µM | 3.38 µM | > 10 µM
CCN(CC)c1ccc(/C=C/C(=O)c2ccc(OC(=O)C3C4C[C@H]5C[C@@H](C4)C[C@@H]3C5)c3c2OC(C)(C)C=C3)cc1 (some centres unmarked) [SKLBC-56, (1r,3r,5r,7r)-8-((E)-3-(4-(diethylamino)phenyl)acryloyl)-2,2-dimethyl-2H-chromen-5-yl adamantane-2-carboxylate] |  | > 10 µM | 9.1 µM | 9.45 µM | 0.59 µM | > 10 µM
COc1ccc(/C=C/C(=O)c2ccc(OC)c3c2OC(C)(C)C=C3)cc1OCCN1CCOCC1 [SKLBC-57, (E)-1-(5-methoxy-2,2-dimethyl-2H-chromen-8-yl)-3-(4-methoxy-3-(2-morpholinoethoxy)phenyl)prop-2-en-1-one] | > 10 µM | > 10 µM | > 10 µM | > 10 µM | > 10 µM | > 20 µM
COc1ccc(/C=C/C(=O)c2ccc(OC)c3c2OC(C)(C)C=C3)cc1OCCO [SKLBC-58, (E)-3-(3-(2-hydroxyethoxy)-4-methoxyphenyl)-1-(5-methoxy-2,2-dimethyl-2H-chromen-8-yl)prop-2-en-1-one] | 0.5 µM | 0.67 µM | 0.58 µM | 0.226 µM | 1.32 µM | > 10 µM
COc1ccc(/C=C/C(=O)c2ccc(OC)c3c2OC(C)(C)C=C3)cc1OCCN1CCCC1 [SKLBC-59, (E)-1-(5-methoxy-2,2-dimethyl-2H-chromen-8-yl)-3-(4-methoxy-3-(2-(pyrrolidin-1-yl)ethoxy)phenyl)prop-2-en-1-one] | > 10 µM | > 10 µM | > 10 µM | > 10 µM | > 10 µM | > 20 µM
COc1ccc(/C=C/C(=O)c2ccc(OC)c3c2OC(C)(C)C=C3)cc1OCCN1CCCCC1 [SKLBC-60, (E)-1-(5-methoxy-2,2-dimethyl-2H-chromen-8-yl)-3-(4-methoxy-3-(2-(piperidin-1-yl)ethoxy)phenyl)prop-2-en-1-one] | > 10 µM | > 10 µM | > 10 µM | > 10 µM | > 10 µM | > 20 µM
COc1ccc(/C=C/C(=O)c2ccc(OC)c3c2OC(C)(C)C=C3)cc1OCCCN(C)C [SKLBC-61, (E)-3-(3-(3-(dimethylamino)propoxy)-4-methoxyphenyl)-1-(5-methoxy-2,2-dimethyl-2H-chromen-8-yl)prop-2-en-1-one] | 0.58 µM | 1.05 µM | 0.44 µM | 0.44 µM | 1.15 µM | > 10 µM
COc1ccc(/C=C/C(=O)c2ccc(OC)c3c2OC(C)(C)C=C3)cc1OC(=O)Cc1cccc(C(F)(F)F)c1 [SKLBC-62, (E)-2-methoxy-5-(3-(5-methoxy-2,2-dimethyl-2H-chromen-8-yl)-3-oxoprop-1-en-1-yl)phenyl 2-(3-(trifluoromethyl)phenyl)acetate] | > 10 µM | > 10 µM | > 10 µM | > 10 µM | > 10 µM | 
COc1cccc(C(=O)Oc2cc(/C=C/C(=O)c3ccc(OC)c4c3OC(C)(C)C=C4)ccc2OC)c1 [SKLBC-63, (E)-2-methoxy-5-(3-(5-methoxy-2,2-dimethyl-2H-chromen-8-yl)-3-oxoprop-1-en-1-yl)phenyl 3-methoxybenzoate] | > 10 µM | > 10 µM | > 10 µM | > 10 µM | > 10 µM | 
COc1ccc(/C=C/C(=O)Oc2cc(/C=C/C(=O)c3ccc(OC)c4c3OC(C)(C)C=C4)ccc2OC)cc1 [SKLBC-64, (E)-2-methoxy-5-((E)-3-(5-methoxy-2,2-dimethyl-2H-chromen-8-yl)-3-oxoprop-1-en-1-yl)phenyl 3-(4-methoxyphenyl)acrylate] | > 10 µM | > 10 µM | > 10 µM | > 10 µM | > 10 µM | 
COc1ccc(/C=C/C(=O)c2ccc(OC)c3c2OC(C)(C)C=C3)cc1OC(=O)CCCc1ccc(N(CCCl)CCCl)cc1 [SKLBC-65, (E)-2-methoxy-5-(3-(5-methoxy-2,2-dimethyl-2H-chromen-8-yl)-3-oxoprop-1-en-1-yl)phenyl 4-(4-(bis(2-chloroethyl)amino)phenyl)butanoate] | 0.6 µM | 3.8 µM | 0.55 µM | 2.1 µM | 0.98 µM | > 10 µM
COc1ccc(/C=C/C(=O)c2ccc(OC)c3c2OC(C)(C)C=C3)cc1OC(=O)c1ccc(Br)cc1 [SKLBC-66, (E)-2-methoxy-5-(3-(5-methoxy-2,2-dimethyl-2H-chromen-8-yl)-3-oxoprop-1-en-1-yl)phenyl 4-bromobenzoate] | 1.11 µM | 0.413 µM |  | 0.368 µM | 2.34 µM | 8.4 µM
COc1ccc(/C=C/C(=O)c2ccc(OC)c3c2OC(C)(C)C=C3)cc1OC(=O)Cc1ccc(Cl)c(Cl)c1 [SKLBC-67, (E)-2-methoxy-5-(3-(5-methoxy-2,2-dimethyl-2H-chromen-8-yl)-3-oxoprop-1-en-1-yl)phenyl 2-(3,4-dichlorophenyl)acetate] | 0.43 µM | 0.105 µM | 0.86 µM | 0.195 µM | 1.9 µM | 10 µM
COc1ccc(/C=C/C(=O)c2ccc(OC)c3c2OC(C)(C)C=C3)cc1OC(=O)c1ccco1 [SKLBC-68, (E)-2-methoxy-5-(3-(5-methoxy-2,2-dimethyl-2H-chromen-8-yl)-3-oxoprop-1-en-1-yl)phenyl furan-2-carboxylate] | 0.245 µM | 0.68 µM | 0.8 µM | 0.068 µM | 1.62 µM | > 10 µM
